Source: patent US20140155384A1, “COMPOUNDS AND METHODS OF TREATING DIABETES” (Medivation Technologies, Inc., priority 2011, published 2014)

Columns and labels:
[1] = molecular target: T1, rat adrenergic α1B receptor (Rattus norvegicus, UniProt P15823); assay: Radioligand binding, adrenergic α1B receptor ([3H]Prazosin); details: Wistar rat liver
T1 construct: rat adrenergic α1B receptor obtained from Wistar Rat liver; from tissue; host or cells: Wistar rat liver
T1 sequence (P15823 1-515): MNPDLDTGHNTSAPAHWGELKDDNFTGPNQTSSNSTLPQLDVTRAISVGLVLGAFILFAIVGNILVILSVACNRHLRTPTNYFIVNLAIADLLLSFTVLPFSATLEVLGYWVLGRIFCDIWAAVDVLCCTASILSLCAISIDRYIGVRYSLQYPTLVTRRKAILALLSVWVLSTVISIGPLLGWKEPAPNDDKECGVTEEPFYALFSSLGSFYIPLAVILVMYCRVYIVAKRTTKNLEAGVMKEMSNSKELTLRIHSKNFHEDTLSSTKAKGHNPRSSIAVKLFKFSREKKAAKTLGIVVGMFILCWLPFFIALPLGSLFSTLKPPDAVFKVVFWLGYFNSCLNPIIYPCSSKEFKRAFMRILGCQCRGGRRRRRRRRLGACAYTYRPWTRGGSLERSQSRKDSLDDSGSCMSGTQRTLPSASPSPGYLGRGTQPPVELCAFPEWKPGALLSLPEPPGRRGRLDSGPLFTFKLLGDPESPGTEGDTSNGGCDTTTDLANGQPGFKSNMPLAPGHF
Outline: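 Wistar rat liver α1B receptor preparation incubated with 0.25 nM [3H]prazosin and compound for 60 min at 25° C in 50 mM Tris-HCl pH 7.4, 0.5 mM EDTA; nonspecific binding defined with 10 μM phentolamine.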

[2] = molecular target: T2, human recombinant adrenergic α2A receptor (Homo sapiens, UniProt P08913); assay: Radioligand binding, adrenergic α2A receptor ([3H]MK-912); details: Sf9 cells, 1 nM [3H]MK-912; for inhibition at 0.03 µM / inhibition at 0.1 µM: read-out: Percentage inhibition of ligand binding, Adrenergic α2A
T2 construct: expressed in transfected cells; host or cells: insect Sf9 cells
T2 sequence (P08913 1-465): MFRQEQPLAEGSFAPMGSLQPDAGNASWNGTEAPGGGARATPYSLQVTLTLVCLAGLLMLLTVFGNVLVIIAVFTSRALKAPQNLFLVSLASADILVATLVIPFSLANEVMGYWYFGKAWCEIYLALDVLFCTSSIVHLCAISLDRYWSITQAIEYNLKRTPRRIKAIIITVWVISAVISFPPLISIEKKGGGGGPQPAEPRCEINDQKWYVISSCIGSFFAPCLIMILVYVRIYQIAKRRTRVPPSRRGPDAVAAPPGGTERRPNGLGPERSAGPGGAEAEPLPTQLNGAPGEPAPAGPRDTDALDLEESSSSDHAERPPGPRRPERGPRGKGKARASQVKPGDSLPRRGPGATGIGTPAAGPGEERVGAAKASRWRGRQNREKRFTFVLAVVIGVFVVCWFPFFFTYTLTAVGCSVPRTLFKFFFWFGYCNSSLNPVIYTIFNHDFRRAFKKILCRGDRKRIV
Outline: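 Percent inhibition of specific [3H]MK-912 (1 nM) binding measured by filtration counting, compounds tested at ≤1 μM in 1% DMSO. Receptor: human α2A from Sf9 cells; incubation 60 min, 25 °C, pH 7.4; 10 μM WB-4101 defined nonspecific binding.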

[3] = molecular target: T3, human recombinant adrenergic α2B receptor (Homo sapiens, UniProt P18089); assay: Radioligand binding, adrenergic α2B receptor ([3H]Rauwolscine); details: CHO-K1 cells; for inhibition at 0.03 µM / inhibition at 0.1 µM: read-out: Percentage inhibition of ligand binding, Adrenergic α2B
T3 construct: expressed in transfected cells; host or cells: CHO-K1
T3 sequence (P18089 1-450): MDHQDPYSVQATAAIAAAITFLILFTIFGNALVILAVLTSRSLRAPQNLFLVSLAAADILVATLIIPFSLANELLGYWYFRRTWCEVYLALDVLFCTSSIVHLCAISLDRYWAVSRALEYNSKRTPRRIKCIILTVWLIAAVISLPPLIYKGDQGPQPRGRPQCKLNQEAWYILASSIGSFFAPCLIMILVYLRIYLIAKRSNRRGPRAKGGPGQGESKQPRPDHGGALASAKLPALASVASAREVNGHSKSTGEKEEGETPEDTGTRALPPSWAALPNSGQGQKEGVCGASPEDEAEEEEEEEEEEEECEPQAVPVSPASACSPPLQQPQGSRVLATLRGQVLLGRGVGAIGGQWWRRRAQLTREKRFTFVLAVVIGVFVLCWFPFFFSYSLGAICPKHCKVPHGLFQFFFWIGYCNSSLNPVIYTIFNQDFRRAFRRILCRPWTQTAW
Outline: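 Percent inhibition of specific [3H]Rauwolscine (2.5 nM) binding, compounds at ≤1 μM, 1% DMSO vehicle, 10 μM prazosin defining nonspecific. Receptor: human α2B expressed in CHO-K1 cells, 60 min incubation at 25 °C in Tris-HCl pH 7.4 buffer (MgCl2, EDTA, BSA); filtered, washed, counted.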

[4] = 0.1 μM compound, read-out: Percentage inhibition of ligand binding, Adrenergic α1B

SMILES | inhibition at 0.03 µM ([1]; 0.03 μM compound, read-out: Percentage inhibition of ligand binding, Adrenergic α1B) [%] | Percentage inhibition of ligand binding, Adrenergic α1B ([1]; 0.1 μM compound) [%] | Percentage inhibition of ligand binding, Adrenergic α2A ([2]; 0.03 μM compound) [%] | inhibition at 0.03 µM ([2]; 0.03 μM compound) [%] | Percentage inhibition of ligand binding, Adrenergic α2A ([2]; 0.1 μM compound) [%] | inhibition at 0.1 µM ([2]; 0.1 μM compound) [%] | Percentage inhibition of ligand binding, Adrenergic α2B ([3]; 0.03 μM compound) [%] | inhibition at 0.03 µM ([3]; 0.03 μM compound) [%] | inhibition at 0.1 µM ([3]; 0.1 μM compound) [%] | inhibition at 0.1 µM [1, 4] [%] | Percentage inhibition of ligand binding, Adrenergic α2B ([3]; 0.1 μM compound) [%]
Cc1ccc2c(c1)c1c(n2-c2cscc2-c2ccc3c(ccn3C)c2)CCN(C)C1 [Compound 33] | 46 | 73 | 96 | 87 | 96 | 92 | 102 | 100 | 95 |  | 
Cc1ccc2c(c1)c1c(n2-c2cscc2-c2ccc3cnccc3c2)CCN(C)C1 [Compound No. 68] |  |  |  | 76 |  | 86 |  | 71 | 86 | 61 | 93
Cc1csc(-c2cscc2-n2c3c(c4cc(C)ccc42)CN(C)CC3)c1 [Compound 50] |  |  |  | 82 |  | 88 |  | 97 | 103 | 42 | 
COc1ccc(-c2cscc2-n2c3c(c4cc(C)ccc42)CN(C)CC3)cc1 [Compound 37] |  |  |  | 81 |  | 88 |  | 104 | 96 | 77 | 104

The remaining lines, values ahead:

inhibition at 0.03 µM ([1]; 0.03 μM compound, read-out: Percentage inhibition of ligand binding, Adrenergic α1B) [%] | Percentage inhibition of ligand binding, Adrenergic α1B ([1]; 0.1 μM compound) [%] | Percentage inhibition of ligand binding, Adrenergic α2A ([2]; 0.03 μM compound) [%] | inhibition at 0.03 µM ([2]; 0.03 μM compound) [%] | Percentage inhibition of ligand binding, Adrenergic α2A ([2]; 0.1 μM compound) [%] | inhibition at 0.1 µM ([2]; 0.1 μM compound) [%] | Percentage inhibition of ligand binding, Adrenergic α2B ([3]; 0.03 μM compound) [%] | inhibition at 0.03 µM ([3]; 0.03 μM compound) [%] | inhibition at 0.1 µM ([3]; 0.1 μM compound) [%] | inhibition at 0.1 µM [1, 4] [%] | Percentage inhibition of ligand binding, Adrenergic α2B ([3]; 0.1 μM compound) [%] | SMILES
 |  |  | 80 |  | 89 |  | 89 | 98 | 36 | 102 | Cc1ccc2c(c1)c1c(n2-c2ccccc2-c2ccc3c(ccn3C)c2)CCN(C)C1 [Compound No. 85, 2,8-dimethyl-5-(2-(1-methyl-1H-indol-5-yl)phenyl)-2,3,4,5-tetrahydro-1H-pyrido[4,3-b]indole]
 |  |  | 74 |  | 84 |  | 103 | 99 | 79 | 109 | Cc1ccc2c(c1)c1c(n2-c2ccccc2-c2cccn2C)CCN(C)C1 [Compound No. 100, 2,8-dimethyl-5-(2-(1-methyl-1H-pyrrol-2-yl)phenyl)-2,3,4,5-tetrahydro-1H-pyrido[4,3-b]indole]
 |  |  | 44 | 68 |  |  | 89 | 94 | 68 | 100 | Cc1ccc2c(c1)c1c(n2-c2cscc2-c2ccc(S(C)(=O)=O)cc2)CCN(C)C1 [Compound No. 76]
 |  |  | 82 |  | 90 |  | 102 | 104 | 51 |  | Cc1ccc2c(c1)c1c(n2-c2cscc2-c2ccc(C)s2)CCN(C)C1 [Compound No. 79]
